Measured values from patent US20240398767A1, “INHIBITORS OF THE MTDH-SND1 PROTEIN COMPLEX FOR CANCER THERAPY” (The Trustees of Princeton University, priority 2021, published 2024).

Key:
[1] = molecular target: T1, linked-luc in SCP28 cells (Photinus pyralis, UniProt P08659, INS416[…]); experiment: Linked-luciferase reporter in living SCP28 cells; type: cell-based; details: multiple doses, 30 min after treatment
T1 construct: NLuc and CLuc were linked with 3 repeats of GGGS, flanked by the same restriction sites, and inserted into the same vectors; expressed in transfected cells; host or cells: SCP28 cells stably transduced with pRVPTO retroviral vector
Procedure: (§1) FIG. 4A, SCP28 cells that stably express split- or linked-luciferase components were treated with multiple doses of C26-A2 or C26-A6. 30 minutes (min) after treatment, culture media was removed and the luciferase activity in the cells was measured. Data represent mean±SEM. n=3 independent experiments.
(§2) C26s inhibit breast cancer progression and metastasis. C26-A2 and A6 were picked for the functional test. To this end, it was tested whether C26-A2 and A6 could inhibit breast cancer progression. […] Next, SCP28 breast cancer cells that were engineered to express split- or linked-luciferase reporter were treated with C26-A2 or A6.

[2] = tested on: Wnt;UBC-CreERT+/-;Mtdhfl/fl tumor cells; experiment: Tumorsphere assay, Wnt;UBC-CreERT+/-;Mtdhfl/fl tumor cells; type: cell-based, mouse; details: with or without 4-OHT pre-treatment
Procedure: (§3) For FIGS. 11B-11E, 50 k per well of cells were seeded and treated with indicated compounds the next day. 5 days after treatment, sphere number and size were assessed and normalized to vehicle control group. Data represent mean±SEM. n=3 independent experiments. Significance determined by one-way ANOVA analysis with Dunnett's test for multiple comparisons.
FIG. 11D, Wnt;UBC-Cre^ERT+/−;Mtdh^fl/fl tumor cells without 5 days of 0.02 μg/ml 4-OHT pre-treatment were subjected to the tumorsphere assay.
FIG. 11E, Wnt;UBC-Cre^ERT+/−;Mtdh^fl/fl tumor cells with 5 days of 0.02 μg/ml 4-OHT pre-treatment were subjected to the tumorsphere assay.

[3] = tested on: C3;UBC-CreERT+/-;Mtdhfl/fl tumor cells; experiment: Tumorsphere assay, C3;UBC-CreERT+/-;Mtdhfl/fl tumor cells; type: cell-based, mouse; details: with or without 4-OHT pre-treatment
Procedure: as §3
FIG. 11B, C3; UBC-Cre^ERT+/−;Mtdh^fl/fl tumor cells (FIGS. 11D, 11E) without 5 days of 0.02 μg/ml 4-OHT pre-treatment were subjected to the tumorsphere assay.
FIG. 11C, C3; UBC-Cre^ERT+/−;Mtdh^fl/fl tumor cells with 5 days of 0.02 μg/ml 4-OHT pre-treatment were subjected to the tumorsphere assay.

[4] = molecular target: T2, MTDH-SND1 interaction (split-luc) in SCP28 cells (Homo sapiens, UniProt Q7KZF4); experiment: Split-luciferase reporter in living SCP28 cells; type: cell-based; details: for blocking efficiency over time (stability of the compounds in cells): 100 μM, 5 days after the addition; for split-luc activity in living cells: multiple doses, 30 min after treatment
T2 construct: SND1-NLuc and CLuc-MTDH flanked by BamH 1 and Not 1 restriction sites were inserted into pcDNA3.1 and pRVPTO (retrovrial) vectors; expressed in transfected cells; host or cells: SCP28 cells stably transduced with pRVPTO retroviral vectors (packaged in H29 cells)
Procedure: as §1
FIG. 4B, The same cells as in FIG. 4A were treated with 100 μM of the compounds for indicated days, and were harvested to measure the luciferase activity. Data represent mean±SEM. n=3 independent experiments.
as §2

Caco-2 cells = experiment: Caco-2 cell based permeability test; type: in vitro ADME; details: 5 μM, A-to-B and B-to-A, 120 min
Procedure: FIG. 11A, Caco-2 cells were employed to test cell permeability of C26-A2 and A6. 5 μM of compounds were dosed on both apical side (A-to-B) and basolateral side (B-to-A). Samples were taken from the donor and receiver chambers at 120 min after treatment. All samples were assayed by LC-MS/MS using electrospray ionization. The apparent permeability (Papp) and percent recovery were calculated.
C26s cell permeability test. The cell permeability of C26-A2 and A6 were determined with monolayer of Caco-2 cells with both the apical-to-basolateral (A-to-B) and basolateral-to-apical (B-to-A) directions by Absorption Systems LLC Detailed protocol can be found in previous studies.

[5] = tested on: PyMT tumor cells with Mtdh KO or Snd1 KD; experiment: Tumorsphere assay, PyMT;UBC-CreERT+/-;Mtdhfl/fl cells with Mtdh KO or Snd1 KD; type: cell-based, mouse; details: Mtdh KO (4-OHT pre-treatment) or Snd1 KD
Procedure: FIG. 4D, PyMT;UBC-Cre^ERT+/−;Mtdh^fl/fl cells with 5 days of 0.02 μg/ml 4-OHT pre-treatment was employed for tumorsphere assay. 50 k per well of cells were seed and treated with indicated compounds the next day. 5 days after treatment, sphere number and size were assessed and normalized to vehicle control group. Data represent mean±SEM. n=3 independent experiments. Significance determined by one-way ANOVA analysis with Sidak's test for multiple comparisons.
FIG. 4E, PyMT;UBC-Cre^ERT+/−;Mtdh^fl/fl cells with or without SND1 knockdown, or without 5 days of 0.02 μg/ml 4-OHT pre-treatment were subjected to the tumorsphere assay and then treated with 200 μM of C26-A6 similar to FIG. 4C. Data represent mean SEM. n=3 independent experiments. Significance determined by two tailed Student's t-test.
FIG. 4F, PyMT;UBC-Cre^ERT+/−;Mtdh^fl/fl cells with or without SND1 knockdown, or with 5 days of 0.02 μg/ml 4-OHT pre-treatment were subjected to the tumorsphere assay and then treated with 200 μM of C26-A6 similar to FIG. 4C. Data represent mean±SEM. n=3 independent experiments. Significance determined by two tailed Student's t-test.
Next, PyMT; UBC-Cre^ERT+/−;Mtdh^fl/fl tumor cells: 1) with or without Mtdh pre-depletion; 2) with or without endogenous Snd1 knockdown; or 3) in combination were employed for tumorsphere assay followed by the compound treatments. […]

[6] = tested on: PyMT;UBC-CreERT+/-;Mtdhfl/fl wild type tumor cells; experiment: Tumorsphere assay, PyMT;UBC-CreERT+/-;Mtdhfl/fl wild type tumor cells; type: cell-based, mouse; details: 5 days after treatment
Procedure: FIG. 4C, PyMT;UBC-Cre^ERT+/−;Mtdh^fl/fl cells without 5 days of 0.02 μg/ml 4-OHT pre-treatment was employed for tumorsphere assay. 50 k per well of cells were seed and treated with indicated compounds the next day. 5 days after treatment, sphere number and size were assessed and normalized to vehicle control group. Data represent mean±SEM. n=3 independent experiments. Significance determined by one-way ANOVA analysis with Sidak's test for multiple comparisons.
Next, PyMT; UBC-Cre^ERT+/−;Mtdh^fl/fl tumor cells: 1) with or without Mtdh pre-depletion; 2) with or without endogenous Snd1 knockdown; or 3) in combination were employed for tumorsphere assay followed by the compound treatments. […] The results were confirmed using C3 and Wnt;UBC-Cre^ERT+/−;Mtdh^fl/fl tumorspheres (FIG. 11B-11E). Taken together, these findings confirmed that the anti-tumor effect of C26-A2 and A6 is dependent on their specific effect on blocking MTDH-SND1 interaction.

T2 sequence (Q7KZF4 with tags, fused parts or gaps): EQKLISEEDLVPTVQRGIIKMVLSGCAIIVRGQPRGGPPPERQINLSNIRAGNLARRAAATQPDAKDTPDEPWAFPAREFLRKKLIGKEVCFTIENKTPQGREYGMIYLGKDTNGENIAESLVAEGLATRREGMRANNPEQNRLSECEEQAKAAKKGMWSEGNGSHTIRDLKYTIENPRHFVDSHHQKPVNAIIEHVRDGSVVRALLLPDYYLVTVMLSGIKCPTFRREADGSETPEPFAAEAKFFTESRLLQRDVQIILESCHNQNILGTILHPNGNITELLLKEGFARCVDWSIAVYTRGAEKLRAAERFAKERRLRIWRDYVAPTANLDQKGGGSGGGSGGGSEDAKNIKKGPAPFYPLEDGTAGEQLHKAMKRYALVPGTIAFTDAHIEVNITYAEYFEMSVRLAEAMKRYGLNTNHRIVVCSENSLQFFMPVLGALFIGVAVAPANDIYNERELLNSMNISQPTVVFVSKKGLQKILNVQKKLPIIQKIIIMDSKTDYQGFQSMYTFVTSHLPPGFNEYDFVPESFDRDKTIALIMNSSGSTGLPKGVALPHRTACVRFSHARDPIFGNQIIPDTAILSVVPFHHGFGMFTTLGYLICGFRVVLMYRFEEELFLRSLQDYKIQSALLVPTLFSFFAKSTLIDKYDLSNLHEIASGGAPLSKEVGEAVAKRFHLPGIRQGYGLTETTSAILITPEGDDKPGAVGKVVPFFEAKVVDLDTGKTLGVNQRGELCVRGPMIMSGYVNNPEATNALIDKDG
T1 sequence (P08659 with tags, fused parts or gaps INS416[withheld]): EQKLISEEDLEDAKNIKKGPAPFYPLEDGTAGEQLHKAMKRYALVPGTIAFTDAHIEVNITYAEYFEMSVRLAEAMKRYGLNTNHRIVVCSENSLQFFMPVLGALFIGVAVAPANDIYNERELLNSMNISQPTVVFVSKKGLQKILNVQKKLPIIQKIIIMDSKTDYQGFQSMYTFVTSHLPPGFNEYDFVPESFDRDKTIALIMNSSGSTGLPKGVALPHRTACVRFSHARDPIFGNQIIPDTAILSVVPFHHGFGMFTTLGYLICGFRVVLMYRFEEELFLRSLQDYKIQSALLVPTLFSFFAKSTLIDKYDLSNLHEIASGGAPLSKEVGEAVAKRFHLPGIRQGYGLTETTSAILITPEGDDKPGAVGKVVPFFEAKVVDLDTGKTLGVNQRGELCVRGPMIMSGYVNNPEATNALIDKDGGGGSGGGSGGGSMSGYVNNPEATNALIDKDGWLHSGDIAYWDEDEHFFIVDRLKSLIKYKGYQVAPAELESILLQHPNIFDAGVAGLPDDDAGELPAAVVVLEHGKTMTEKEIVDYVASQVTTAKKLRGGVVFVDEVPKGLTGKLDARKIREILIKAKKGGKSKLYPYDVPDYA

Row | Structure (SMILES) | linked-luc activity in living cells [1] | tumorsphere formation (sphere number and size) [2] | tumorsphere formation (sphere number and size) [3] | blocking efficiency over time (stability of the compounds in cells) [4] | split-luc activity in living cells [4] | cell permeability (Caco-2 cells) | tumorsphere formation (sphere number and size) [5] | tumorsphere formation (sphere number and size) [6]
1 | COc1ccc(Cl)cc1S(=O)(=O)Nc1cccn2nc(C)nc12 [Analog C26-A6] | without significantly affecting linked-luc activity | confirmed | confirmed | not significantly changed | inhibited split-luc activity in living cells in a dose dependent manner | highly permeable | no effects | inhibited spheres
2 | COc1ccc(Cl)cc1S(=O)(=O)Nc1cccn2ncnc12 [Analog C26-A2] | without significantly affecting linked-luc activity | confirmed | confirmed | not significantly changed | inhibited split-luc activity in living cells in a dose dependent manner | highly permeable | no effects | inhibited spheres
